How the values were obtained:
Type in all cases: cell-based
[1] = test system: Reconstructed Human Epidermis (RHE); assay: Proteomic analysis (LC-MS/MS) of Reconstructed Human Epidermis topically treated with lipid in base emulsion; details: lipid in base emulsion 24h, vs vehicle
Source text: FIGS. 1 to 5 show heatmaps using a log 2 scale with up- or downregulation of respective proteins upon treatment with 0,01% (01), 0,03% (03) and 0,15% (15) of respective ceramide in vehicle as compared to vehicle without ceramide (VEH) (FIG. 1: LacCerNS, FIG. 2: GlcCerNS, FIG. 3: CerNP. FIG. 4: CerNG, FIG. 5: CerNS); detailed experimental setup explained in Example 4.
Material and methods: Reconstructed Human Epidermis (RHE) cell culture was used, as this system mimics the in vivo 3D structure of epidermal tissue as well as the conditions and processes that occur in normal epidermis. RHE were cultured using the medium provided by the manufacturer until analysis. RHE were maintained in survival for 24 hours, before RHE were topically treated with lipid in a base emulsion for 24h. 3 RHE were treated with base emulsion alone and 3 more remained untreated as a control batch (Ctrl). RHE were incubated under classical cell culture conditions (37° C., 5% CO2).
Sample preparation and LC-MS/MS analysis: Protein was extracted using the Pierce Total Protein Extraction Kit (Thermo Fisher) according to manufacturer's recommendations. The protein was mixed with Laemmli buffer and heated to 37° ° C. for 30 min. Protein concentration was determined by the BCA method and standardized for all samples. The samples were separated by SDS-PAGE and digested with trypsin overnight. The peptides generated were acidified and separated. The mass spectra were queried using Proteome Discoverer (version 2.5). The resulting MS/MS data were queried against the Homo sapiens proteome UP000005640 (20371 reviewed entries). Results were filtered based on unique peptides >2, and global peptide scores. Analyses were performed using Proteome Discoverer 2.5 to check for overall sample quality.
Bioinformatics and statistical analysis: Proteomic analysis returned a mean total of 34961 high-quality peptides corresponding to a mean 2422 identifiable and quantifiable RHE proteins among conditions. A summary of proteins differentially expressed within conditions is provided in Annexe 3. Proteins with a p-value≤0,05 in at least one of the concentrations tested for a lipid were considered significant and used for pairwise comparisons. Relevant proteins were classified by their biological processes and associated pathways using the publicly available gene ontology (GO) database provided by the Gene Ontology Consortium and Reactome. Interactome analysis was performed using Cytoscape combined with STRING.

[2] = test system: Human epidermal keratinocytes; assay: Gene expression in keratinocytes, qPCR; details: 200 ppm in DMSO, 1 week
Procedure: (§1) Human epidermal keratinocytes are obtained from a commercial vendor. The cells are isolated from juvenile foreskin or from adult normal human tissue collected from various sites that include face, breast, abdomen, and thigh. The cells are cultivated in a T25 flask using a commercial keratinocyte Growth Medium which is a serum-free medium and optimized for the in vitro cultivation of epidermal keratinocytes without feeder cells. A commercial growth supplement and calcium is added to a final concentration of 1.2 mM to induce differentiation.
(§2) Upon reaching cell confluence, the cells are treated with either 200 ppm glucosylceramide or 200 ppm lactosylceramide, each dissolved in dimethyl sulfoxide (DMSO) for 1 week. The cells are homogenised with 2 mL chloroform:methanol (2:1), and transferred to a vial containing Phosphate Buffered Saline (PBS). The homogeniser is rinsed twice with solvent and all rinses are together. The organic phase is evaporated to dryness.
Gene expression is determined by isolating RNA samples from the keratinocytes using a Qiagen RNeasy kit with DNase I digestion. Reverse transcription is performed using a high-capacity cDNA kit, cDNA samples of 40 ng are used for qPCR. Taqman gene expression assay is purchased commercially, and the qPCR reaction is performed using a fast amplifier. […] Relative gene expression is calculated by comparative CT method.

[3] = test system: Human epidermal keratinocytes; assay: Ceramide levels produced by keratinocytes, HPTLC; details: 200 ppm in DMSO, 1 week; compared to untreated keratinocytes
Procedure: as §1, §2
Ceramide levels produced by the keratinocytes are measured by a modified high-performance thin layer chromatography (HPTLC) method. […] The plates are stained with 3% copper acetate in 8% phosphoric acid and charred at 160° C. for the quantitation of ceramides. Quantification is performed against known quantities of Ceramide NP by laser scanning densitometry. Each plate is scanned at 425 nm and quantified using WinCATS software.

| Compound | cytochrome c oxidase subunit 6C regulation [1] | phosphomevalonate kinase protein regulation [1] | transglutaminase-1 gene expression [2] | β-glucocerebrosidase (GBA) expression [2] | NAD-dependent malic enzyme (mitochondrial) regulation [1] | ATP synthase subunit delta (mitochondrial) regulation [1] | ATP synthase subunit g (mitochondrial) regulation [1] | ceramide synthase 4 protein regulation [1] | proteins of the mitochondrial respiratory chain, regulation [1] | syndecan-1 protein regulation [1] | IL8 gene expression [2] | TNF gene expression [2] | expression of the ABCA12 gene [2] | involucrin gene expression [2] | ATP-dependent zinc metalloprotease YME1L1 regulation [1] | Total ceramides in keratinocytes [3] | also measured |
| --- | --- | --- | --- | --- | --- | --- | --- | --- | --- | --- | --- | --- | --- | --- | --- | --- | --- |
| CCCCCCCCCCCCCCCCCC(=O)N[C@@H](CO)[C@H](O)CCCCCCCCCCCCCCC [ceramide NG] | upregulation | upregulation | – | – | – | upregulation | upregulation | upregulation | upregulation | – | – | – | – | – | – | – | loricrin protein regulation [1]: upregulation; repetin protein regulation [1]: upregulation; small proline-rich protein 2D regulation [1]: upregulation |
| CCCCCCCCCCCCC/C=C/[C@@H](O)[C@H](CO)NC(=O)CCCCCCCCCCCCCCCCC [ceramide NS] | – | upregulation | – | – | – | – | – | – | – | upregulation | – | – | – | – | – | – | cornifin-B protein regulation [1]: upregulation; filaggrin-2 protein regulation [1]: upregulation; kallikrein-5 protein regulation [1]: upregulation |
| CCCCCCCCCCCCCCCCCC(=O)N[C@@H](CO)[C@H](O)[C@H](O)CCCCCCCCCCCCCC [ceramide NP] | – | upregulation | – | – | – | – | – | – | upregulation | upregulation | – | – | – | – | – | – | NADH dehydrogenase [ubiquinone] iron-sulfur protein 8 (mitochondrial) regulation [1]: upregulation; long-chain-fatty-acid-CoA ligase 3 protein regulation [1]: upregulation; phosphopantothenate-cysteine ligase protein regulation [1]: upregulation |

Second part, led by results:

| cytochrome c oxidase subunit 6C regulation [1] | phosphomevalonate kinase protein regulation [1] | transglutaminase-1 gene expression [2] | β-glucocerebrosidase (GBA) expression [2] | NAD-dependent malic enzyme (mitochondrial) regulation [1] | Compound | ATP synthase subunit delta (mitochondrial) regulation [1] | ATP synthase subunit g (mitochondrial) regulation [1] | ceramide synthase 4 protein regulation [1] | proteins of the mitochondrial respiratory chain, regulation [1] | syndecan-1 protein regulation [1] | IL8 gene expression [2] | TNF gene expression [2] | expression of the ABCA12 gene [2] | involucrin gene expression [2] | ATP-dependent zinc metalloprotease YME1L1 regulation [1] | Total ceramides in keratinocytes [3] | also measured |
| --- | --- | --- | --- | --- | --- | --- | --- | --- | --- | --- | --- | --- | --- | --- | --- | --- | --- |
| upregulation | upregulation | increase in expression | Up-regulation | upregulation | CCCCCCCCCCCCC/C=C/[C@@H](O)[C@H](CO[C@@H]1O[C@H](CO)[C@@H](O)[C@H](O)[C@H]1O)NC(=O)CCCCCCCCCCCCCCCCC [glucosyl ceramide] | upregulation | upregulation | – | upregulation | – | reduced gene expression | reduced gene expression | increases | increase in expression | upregulation | elevated | 3-ketodihydrosphingosine reductase protein regulation [1]: upregulation; NADH dehydrogenase [ubiquinone] 1 alpha subcomplex subunit 8 regulation [1]: upregulation; NADH dehydrogenase [ubiquinone] iron-sulfur protein 2 (mitochondrial) regulation [1]: upregulation; acetyl-coenzyme A synthetase (cytoplasmic) protein regulation [1]: upregulation; malonate-CoA ligase ACSF3 (mitochondrial) protein regulation [1]: upregulation |
| upregulation | upregulation | increase in expression | Up-regulation | upregulation | CCCCCCCCCCCCC/C=C/[C@@H](O)[C@H](CO[C@@H]1O[C@H](CO)[C@@H](O[C@@H]2O[C@H](CO)[C@H](O)[C@H](O)[C@H]2O)[C@H](O)[C@H]1O)NC(=O)CCCCCCCCCCCCCCCCC [lactosylceramide] | upregulation | upregulation | upregulation | upregulation | upregulation | reduced gene expression | reduced gene expression | increases | increase in expression | upregulation | elevated | cytochrome b-c1 complex subunit 9 regulation [1]: upregulation; cytochrome c oxidase subunit 2 regulation [1]: upregulation; cytochrome c oxidase subunit NDUFA4 regulation [1]: upregulation |
